Like-named read-outs stand apart in the source and are kept apart here.
Key:
[1] = test system: ERα-positive/HER2-negative breast cancer; assay: Relapse-free survival of ERα-positive/HER2-negative breast cancer patients stratified by Fbxo22; format: in vivo, human; conditions: patient group that had undergone the TAM treatment
Description: FIGS. 9A and 9B show representative immunohistochemical staining images of a normal mammary gland (FIG. 9A), an Fbxo22-positive mammary gland of human breast cancer (FIG. 9B, left view), and an Fbxo22-negative mammary gland (FIG. 9B, right view). Scale bar: 20 μm. FIGS. 9C to 9F show Kaplan-Meier survival curves formed by stratifying ERα-positive/HER2-negative breast cancer (FIG. 9C), Luminal A (low Ki-67) breast cancer (FIG. 9D), lymph node metastasis-negative breast cancer (FIG. 9E), and tamoxifen-administered breast cancer (FIG. 9F) by the expression of Fbxo22. The P value and the hazard ratio were calculated according to a log-rank test.
Formalin fixing, paraffin embedding, core needle aspiration biopsy cytology panels, and the clinical data thereof, which were derived from 163 cases of continuously treated T2 (diameter: 2 to 5 cm) ERα-positive/HER-2-negative primary breast cancers, were obtained from patients who underwent surgery at St. Marianna University School of Medicine Hospital from 2005 to 2009. […] A tissue section was incubated with anti-Fbxo22 antibody (GTX117774, GeneTex) used as a primary antibody, which was diluted to 1:200, and was then detected using an HRP-polymer-labeled secondary antibody (Histofine Simple Stain MAX PO (multi), Nichirei, Japan). […] The Fbxo22-positive cells were evaluated according to a blind test conducted by two pathologist. […]

[2] = test system: ERα-positive breast cancer; conditions: cited from earlier work
[3] = test system: ERα complex with KDM4B and SRC-3
ERα complex with KDM4B and SRC-3, sequence (P03372 whole entry, one chain of several): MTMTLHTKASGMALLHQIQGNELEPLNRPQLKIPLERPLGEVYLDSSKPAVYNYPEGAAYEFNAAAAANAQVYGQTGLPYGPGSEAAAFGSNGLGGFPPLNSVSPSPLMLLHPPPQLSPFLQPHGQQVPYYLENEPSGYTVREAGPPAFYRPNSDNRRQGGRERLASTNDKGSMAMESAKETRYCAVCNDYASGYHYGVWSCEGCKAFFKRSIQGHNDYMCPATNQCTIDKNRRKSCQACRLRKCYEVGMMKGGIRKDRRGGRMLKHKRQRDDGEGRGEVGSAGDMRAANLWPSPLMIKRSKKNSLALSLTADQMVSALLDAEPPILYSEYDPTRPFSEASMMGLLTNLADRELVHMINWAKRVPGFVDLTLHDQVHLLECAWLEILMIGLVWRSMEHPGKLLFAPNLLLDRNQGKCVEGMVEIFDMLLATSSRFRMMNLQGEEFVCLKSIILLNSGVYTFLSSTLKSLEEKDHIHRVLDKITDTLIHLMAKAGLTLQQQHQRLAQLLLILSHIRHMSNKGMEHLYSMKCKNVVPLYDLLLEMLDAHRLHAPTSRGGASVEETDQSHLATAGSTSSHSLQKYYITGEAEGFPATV
Description: (§1) Using total RNA derived from individual cells recovered over time, qPCR was carried out. […] Using total RNA prepared from the treated cells, qPCR was carried out. […] Using the nucleus extract, immunoprecipitation and immunoblotting were carried out.
(§2) The obtained cells were immunostained with anti-FLAG antibodies. Representative images are shown.
(§3) Total RNA was prepared from the cells treated with various drugs, and qPCR was carried out.
(§4) Immunoprecipitation and immunoblotting were carried out according to the method described in Johmura et al., Molecular Cell 55: 73-84, 2014. The cells were dissolved in a TBSN buffer (20 mM Tris-Cl (pH 8.0), 150 mM NaCl, 0.5% NP-40, 5 mM EGTA, 1.5 mM EDTA, and 0.5 mM Na3VO4). The obtained cell lysate was centrifuged at 4° C. at 15,000×g for 20 minutes, and was then used in immunoprecipitation using an antibody.
Regarding immunoprecipitation of ERα and KDM4B, a nuclear extract was prepared according to the method described in Hirokawa et al., Cancer Res. 74: 3880-3889, 2014. Cell pellets were suspended in buffer A (10 mM Hepes-KOH pH 7.9, 10 mM KCl, 1.5 mM MgCl2, 0.5 mM DTT, 0.5 mM PMSF, and protease inhibitor cocktail (Nakalai Tesque)) having five times the volume of the cell pellets, and the suspension was then incubated on ice for 5 minutes. Thereafter, the cells were centrifuged at 4° C. at 500×g for 5 minutes, and the obtained cell pellets were then suspended in buffer A having two times the volume of the cell pellets for homogenization. The homogenized cell suspension was centrifuged at 4° C. at 4,000×g for 5 minutes, and a cell nucleus was recovered in a precipitate. To the recovered nucleus, an equal amount of buffer B (20 mM Hepes-KOH pH 7.9, 600 mM KCl, 1.5 mM MgCl2, 0.2 mM EDTA, 25% glycerol, 0.5 mM DTT, 0.5 mM PMSF, and protease inhibitor cocktail) was added and suspended, and the obtained mixture was then blended at 4° C. for 30 minutes, using a rotator. The nuclear extract was centrifuged at 4° C. at 16,000×g for 15 minutes, and was then recovered in a supernatant. The nuclear extract was dialyzed against buffer C (20 mM Hepes-KOH pH 7.9, 100 mM KCl, 0.2 mM EDTA, 20% glycerol, 0.5 mM DTT, and 0.5 mM PMSF). After completion of the dialysis, the nuclear extract was centrifuged at 4° C. at 16,000×g for 30 minutes, and the remaining precipitate was then eliminated.
A protein (20 to 50 μg) was separated from the total cell lysate by SDS-PAGE, and was then transferred into a PVDF membrane (Millipore), which was then used in immunoblotting using various types of antibodies.

[4] = test system: T47D cells; assay: Colony formation assay, T47D cells; format: cell-based, human; conditions: Fbxo22-knocked-out T47D cells in the presence of E2 and 4-OHT, compared with control cells
Description: The cells (5×10^2) were seeded on a 6-well plate, and were then cultured for 2 weeks. Thereafter, colonies were immobilized with methanol/acetic acid (1:1) for 15 minutes, and were then stained in 20% methanol/PBS containing 0.4% trypan blue (Sigma) for 15 minutes, followed by counting.

[5] = test system: FLAG-Fbxo22 binding to ERα
FLAG-Fbxo22 binding to ERα, sequence (P03372 whole entry): as the sequence (P03372 whole entry, one chain of several) above
Description: as §4

[6] = test system: ERα; assay: ChIP-Seq analysis of ERα binding in MCF-7 cells; format: cell-based, human; conditions: for ERα accumulation peaks detected: 2 hours, E2 line = E2 (10 nM), 4-OHT line = E2+4-OHT
Description: Thereafter, DNA was extracted using a DNA purification column.

[7] = test system: ERα-dependent transcription; assay: qPCR of ERα target gene transcripts (EBAG9, GREB1) in MCF-7 cells; format: cell-based, human
Description: as §1
Using total RNA prepared from the cells over time, qPCR was carried out.
as §3
The cells were washed with PBS three times, and were then cultured in phenol red-non-added DMEM (supplemented with 5% charcoal-stripped FBS) for 72 hours.
(§5) Quantitative RT-PCR was carried out according to the method described in Johmura et al., Molecular Cell 55: 73-84, 2014. Total RNA was extracted using ISOGEN II (Wako), and using this as a template, cDNA was synthesized using SuperScript II cDNA synthesis kit (Invitrogen). PCR amplification was carried out in a 96-well optical reaction plate, using Power SYBR Green PCR Master Mix (Applied Biosystems). The relative expression ratio of individual genes was normalized with respect to the expression level of GAPDH.

[8] = test system: KDM4B forming a complex with ERα
KDM4B forming a complex with ERα, sequence (P03372 whole entry, one chain of several): as above

[9] = test system: T47D breast cancer cells; assay: T47D cells transplanted into the mammary gland fat pad of NOD/Scid mice; format: in vivo, mouse; conditions: NOD/Scid mice with Fbxo22-knocked-out T47D cells treated with 4-OHT pellets, compared with mice with control cells
Description: Representative colony images (upper view) and the results of the assay are shown. […] Ki-67-positive and cleaved caspase 3-positive cells were counted, and the counted numbers were then normalized with respect to the cell nucleus in each section. *p<0.05, ***p<0.05. […] Thereafter, the cells were treated with trypsin, were then suspended in PBS, and were then mixed with Matrigel (CORNING 354230) at a mixing ratio of 1:1. […] Six weeks later, the mice were euthanized, the tumor was then excised, and the size of the tumor was then measured. Thereafter, the tumor was fixed with formalin and was then embedded in paraffin, and an HE stain slide glass was produced. The size of a tumor was evaluated as follows: V=(length×width×height×0.5326) mm^3. All of the mice were fed under a specific pathogen-free environment, and were treated in accordance with Animal Experiment Guidelines, Graduate School of Medicine and Faculty of Medicine, The University of Tokyo.

[10] = test system: CFP-LacER, YFP-SRC-1 and FLAG-KDM4B foci; conditions: in the presence of E2 and 4-OHT
CFP-LacER, YFP-SRC-1 and FLAG-KDM4B foci, sequence (P03372 311-547 limits assumed): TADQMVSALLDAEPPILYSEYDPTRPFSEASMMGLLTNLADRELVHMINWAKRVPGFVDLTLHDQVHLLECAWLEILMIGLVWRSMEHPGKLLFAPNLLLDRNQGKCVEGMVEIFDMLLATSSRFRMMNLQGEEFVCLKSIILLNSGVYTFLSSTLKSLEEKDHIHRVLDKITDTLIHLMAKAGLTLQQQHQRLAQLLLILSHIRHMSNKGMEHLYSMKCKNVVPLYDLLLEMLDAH
Description: as §2
U205-LacO-I-SceI-TetO cells were cultured in a glass bottom dish (Iwaki) on the stage of BZ-9000 (Keyence) equipped with an environmental chamber (Keyence). The microscopic image was analyzed with BZ-9000 software.
In order to immobilize ERα on a Lac operator array stably incorporated into living cells, using a CFP-tagged lac receptor-ERα chimeric protein (CFP-LacER), accumulation of YFP-SRC-1 and KDM4B in an ERα-immobilized position was examined.

[11] = test system: MCF-7 cells; assay: Colony formation assay, MCF-7 cells; format: cell-based, human
Description: Representative colony images (upper view) and the results of the assay are shown. […] Ki-67-positive and cleaved caspase 3-positive cells were counted, and the counted numbers were then normalized with respect to the cell nucleus in each section. *p<0.05, ***p<0.05. The cells (5×10^2) were seeded on a 6-well plate, and were then cultured for 2 weeks. Thereafter, colonies were immobilized with methanol/acetic acid (1:1) for 15 minutes, and were then stained in 20% methanol/PBS containing 0.4% trypan blue (Sigma) for 15 minutes, followed by counting.

[12] = test system: ERα; conditions: U2OS cells, Fbxo22 not expressed
Description: as §2, §5

CC/C(=C(\c1ccccc1)c1ccc(OCCN(C)C)cc1)c1ccccc1 [TAM, Tamoxifen]
prognosis (relapse-free survival) of Fbxo22-negative breast cancer [1]: extremely poor prognosis
reduction of annual breast cancer mortality rate ([2]; TAM therapy): approximately 30%
early breast cancer patients with a recurrence within 15 years ([2]; patients treated by TAM): approximately 25%

4-hydroxytamoxifen [4-OHT]
cofactor dynamics (KDM4B/SRC-3 dissociation, N-CoR interaction with ERα) ([3]; Fbxo22-depleted MCF-7 cells, E2 then 4-OHT): not observed
complex of ERα with KDM4B and SRC-3 ([3]; control MCF-7 cells stimulated by E2, then 4-OHT): dissociated
colony formation [4]: significantly promoted
FLAG-Fbxo22 binding to ERα [5]: recovered (increased)
ERα accumulation peaks detected ([6]; Fbxo22-depleted MCF-7 cells): 19,924
interaction of ERα with a target region ([6]; MCF-7 cells, E2+4-OHT versus E2): does not affect
accumulation of ERα in the promoter regions of GREB1 and IGFBP4 genes ([6]; control and Fbxo22-depleted MCF-7 cells, E2 line = E2, 4-OHT line = E2+4-OHT): maintained
ERα accumulation peaks detected ([6]; wild-type/control MCF-7 cells): 26,751
antagonistic activity of 4-OHT on transcription of EBAG9 and GREB1 ([7]; Fbxo22-depleted MCF-7 cells): suppressed
time after addition of 4-OHT at which transcript levels of GREB1 and EBAG1 became minimum ([7]; MCF-7, E2-depleted 72 h, E2 10 nM, 4-OHT 100 nM added 6 hours after E2): Six
transcription of EBAG9 and GREB1 ([7]; control MCF-7 cells stimulated by E2, treated with 4-OHT): strongly suppressed
ubiquitination of KDM4B forming a complex with ERα [8]: recovered
tumor growth (tumor volume) [9]: clear increase
colocalization of FLAG-KDM4B with CFP-LacER and YFP-SRC-1 ([10]; Fbxo22-depleted cells): colocalized
colocalization of FLAG-KDM4B with CFP-LacER and YFP-SRC-1 ([10]; control cells): not observed
proliferation-suppressing effect of 4-OHT ([11]; Fbxo22-depleted MCF-7 cells): reduced
proliferation-suppressing effect of 4-OHT ([11]; Fbxo22-depleted MCF-7 cells with Fbxo22 re-expressed (FLAG-Fbxo22)): recovered
proliferation (colony formation) in the presence of E2 ([11]; control MCF-7 cells, E2 10 nM, 4-OHT 100 nM): completely suppressed
antagonistic activity of 4-OHT ([12]; wild-type ERα expressed, stimulated by E2): suppressed
antagonistic activity of 4-OHT ([12]; Δ44 ERα expressed): observed

From patent publication US20220120753A1, “METHOD FOR DETERMINING PROGNOSIS OF CANCER” (The University of Tokyo, priority 2018, published 2022)
